# Experimental data from patent publication US10385097B2, “Ether compounds for treatment of medical disorders” (Achillion Pharmaceuticals, Inc., priority 2015, dated 2019).
# Molecular target: T1, Human Factor D (Homo sapiens, UniProt P00746)
# T1 construct: purified from human serum; purchased Complement Technology, Inc; host or cells: human serum (natural protein, not recombinant)
# Assay: Human Factor D Assay
# Format: biochemical
# Conditions: Table 3; Human Factor D 80 nM, substrate Z-L-Lys-SBzl; read-out: (IC50 (Stars))
# Procedure, shortened: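 Serum-purified factor D (80 nM final) preincubated 5 min at room temperature with compound in 50 mM Tris, 1 M NaCl, pH 7.5. Reaction started with 100 μM Z-L-Lys-SBzl plus 100 μM DTNB; A405 read every 30 s for 30 min; IC50 by nonlinear regression of rates.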
# T1 sequence (P00746 26-253): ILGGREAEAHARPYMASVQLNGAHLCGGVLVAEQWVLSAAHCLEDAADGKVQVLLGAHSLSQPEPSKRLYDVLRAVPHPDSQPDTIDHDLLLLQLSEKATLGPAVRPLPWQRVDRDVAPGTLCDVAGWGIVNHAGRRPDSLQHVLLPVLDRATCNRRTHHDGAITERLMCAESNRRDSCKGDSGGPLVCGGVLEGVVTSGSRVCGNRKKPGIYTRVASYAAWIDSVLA
row,Structure (SMILES),IC50 [nM]
1,"Cc1cccc(NC(=O)[C@@H]2[C@H]3CC[C@H](C3)N2C(=O)Cn2cc(C(N)=O)c3cc(OCS(=O)(=O)NC(C)(C)C)ccc32)n1 [Compound 186, 5-((N-(tert-butyl)sulfamoyl)methoxy)-1-(2-((1R,3S,4S)-3-((6-methylpyridin-2-yl)carbamoyl)-2-azabicyclo[2.2.1]heptan-2-yl)-2-oxoethyl)-1H-indole-3-carboxamide]",> 10000
2,"Cc1cccc(NC(=O)[C@@H]2[C@H]3CC[C@H](C3)N2C(=O)Cn2cc(C(N)=O)c3cc(OCS(N)(=O)=O)ccc32)n1 [Compound 187, 1-(2-((1R,3S,4S)-3-((6-Methylpyridin-2-yl)carbamoyl)-2-azabicyclo[2.2.1]heptan-2-yl)-2-oxoethyl)-5-(sulfamoylmethoxy)-1H-indole-3-carboxamide]",> 10000
3,"CC(=O)c1nn(CC(=O)N2C[C@H](F)C[C@H]2C(=O)Nc2cccc(Br)n2)c2ccc(O[C@@H]3CO[C@H]4[C@@H]3OC[C@H]4O)cc12 [Compound 200, (2S,4R)-1-(2-(3-acetyl-5-(((3R,3aR,6R,6aR)-6-hydroxy-hexahydrofuro[3,2-b]furan-3-yl)oxy)-1H-indazol-1-yl)acetyl)-N-(6-bromopyridin-2-yl)-4-fluoropyrrolidine-2-carboxamide]",< 1000
4,"CC(=O)c1nn(CC(=O)N2C[C@H](F)C[C@H]2C(=O)Nc2cccc(Br)n2)c2cc(OCP(=O)(O)O)ccc12 [Compound 201, (((3-acetyl-1-(2-((2S,4R)-2-((6-bromopyridin-2-yl)carbamoyl)-4-fluoropyrrolidin-1-yl)-2-oxoethyl)-1H-indazol-6-yl)oxy)methyl)phosphonic acid]",< 1000
5,"CC(=O)c1nn(CC(=O)N2[C@H](C(=O)Nc3cccc(Br)n3)C[C@@]3(C)C[C@@H]23)c2cc(OCP(=O)(O)O)ccc12 [Compound 250, (((3-acetyl-1-(2-((1R,3S,5R)-3-((6-bromopyridin-2-yl)carbamoyl)-5-methyl-2-azabicyclo[3.1.0]hexan-2-yl)-2-oxoethyl)-1H-indazol-6-yl)oxy)methyl)phosphonic acid]",< 1000
6,"CC(=O)c1cn(CC(=O)N2C[C@H](F)C[C@H]2C(=O)Nc2cccc(-c3ccccc3Cl)c2F)c2ccc(OCC[S+]([O-])CC(C)(CO)CO)cc12 (stereo partly drawn) [Compound 251, (2S,4R)-1-(2-(3-acetyl-5-(2-(3-hydroxy-2-(hydroxymethyl)-2-methyl-propylsulfinyl)ethoxy)-1H-indol-1-yl)acetyl)-N-(2′-chloro-2-fluorobiphenyl-3-yl)-4-fluoropyrrolidine-2-carboxamide]",< 1000
7,"CC(=O)c1cn(CC(=O)N2C[C@H](F)C[C@H]2C(=O)Nc2cccc(-c3ccccc3Cl)c2F)c2ccc(OCC[S+]([O-])CC3(C)COC3)cc12 (stereo partly drawn) [Compound 252, (2S,4R)-1-(2-(3-acetyl-5-(2-((3-methyloxetan-3-yl)methylsulfinyl)ethoxy)-1H-indol-1-yl)acetyl)-N-(2′-chloro-2-fluorobiphenyl-3-yl)-4-fluoropyrrolidine-2-carboxamide]",< 1000
8,"CC(=O)c1cn(CC(=O)N2C[C@H](F)C[C@H]2C(=O)Nc2cccc(-c3ccccc3Cl)c2F)c2ccc(OCCS(=O)(=O)CC3(C)COC3)cc12 [Compound 253, (2S,4R)-1-(2-(3-acetyl-5-(2-((3-methyloxetan-3-yl)methylsulfonyl)ethoxy)-1H-indol-1-yl)acetyl)-N-(2′-chloro-2-fluorobiphenyl-3-yl)-4-fluoropyrrolidine-2-carboxamide]",< 1000

# Further lines, results first:
row,IC50 [nM],Structure (SMILES)
1,< 1000,"CC(=O)c1nn(CC(=O)N2C[C@H]3C[C@H]3[C@H]2C(=O)Nc2nc(Br)ccc2C2CC2)c2ccc(O[C@@H]3CO[C@H]4[C@@H]3OC[C@H]4O)cc12 [Compound 184, (1R,2S,5S)-3-(2-(3-Acetyl-5-((3R,3aR,6R,6aR)-6-hydroxyhexahydrofuro[3,2-b]furan-3-yloxy)-1H-indazol-1-yl)acetyl)-N-(6-bromo-3-cyclopropylpyridin-2-yl)-3-azabicyclo[3.1.0]hexane-2-carboxamide]"
2,< 1000,"CC(=O)c1nn(CC(=O)N2C[C@H]3C[C@H]3[C@H]2C(=O)Nc2nc(Br)ccc2C)c2ccc(O[C@@H]3CO[C@H]4[C@@H]3OC[C@H]4O)cc12 [Compound 185, (1R,2S,5S)-3-(2-(3-Acetyl-5-((3R,3aR,6R,6aR)-6-hydroxyhexahydrofuro[3,2-b]furan-3-yloxy)-1H-indazol-1-yl)acetyl)-N-(6-bromo-3-methylpyridin-2-yl)-3-azabicyclo[3.1.0]hexane-2-carboxamide]"
3,< 1000,"CC(=O)c1nn(CC(=O)N2C[C@H](F)C[C@H]2C(=O)Nc2cccc(Br)n2)c2ccc(OC3CCOC3)cc12 (stereo partly drawn) [Compound 193, (2S,4R)-1-(2-(3-acetyl-5-((tetrahydrofuran-3-yl)oxy)-1H-indazol-1-yl)acetyl)-N-(6-bromopyridin-2-yl)-4-fluoropyrrolidine-2-carboxamide]"
4,< 1000,"CC(=O)c1nn(CC(=O)N2C[C@H](F)C[C@H]2C(=O)Nc2cccc(Br)n2)c2ccc(OC3CCCC3)cc12 [Compound 194, (2S,4R)-1-(2-(3-acetyl-5-(cyclopentyloxy)-1H-indazol-1-yl)acetyl)-N-(6-bromopyridin-2-yl)-4-fluoropyrrolidine-2-carboxamide]"
